In the experiment the test system is P. falciparum 3D7 growth, pLDH absorbance. The experiment in a line: P. falciparum 3D7 growth inhibition, dose response, strain 3D7 (AID 2305).

Structures are written as SMILES.

This note sets out measurements from PubChem BioAssay AID2305 (GlaxoSmithKline (GSK), 2010).

One may read the IC50 as the concentration needed to halve the response being measured.

Take `CCC(CC(C)C(=O)O)=C(c1ccccc1)c1ccccc1` (centres undefined): the IC50 amounted to 220 nM.
In turn, `CCc1sc(N2CCN(C)CC2)nc1C(=O)NCCc1ccc(Cl)c(Cl)c1` had an IC50 of 1180 nM.
For the compound `Cc1ccc2nc(Cl)c3cc(C(=O)NCCCN4CCCC4)sc3c2c1`, the IC50 was 1140 nM.
Compound `Cc1c(NCCCNCc2cc(Cl)cc(Cl)c2Cl)[nH]c2ccccc2c1=O` displayed an IC50 of 310 nM.
In turn, `NC1=NC(c2ccccc2)(c2ccccc2)C(=O)N1CCCCc1ccccc1` came in with an IC50 of 760 nM.
Then `COc1c(C2CCN(CCCCNC(=O)c3ccc(-c4ccc(Cl)cc4)cc3)CC2)ccc2c1C(C)(C)CCC2(C)C`, with 780 nM; and `CCOc1cc(Cc2cnc(N)nc2N)cc(OCC)c1OCCCCC(=O)OC`, with 40 nM; and `Clc1cccc(C23N=C(Nc4nc5ccccc5[nH]4)NC2(c2ccccc2)NC(Nc2nc4ccccc4[nH]2)=N3)c1` (centres undefined), with 520 nM.
For `Cn1cc(C2CCN(CCCCNC(=O)c3ccc(-c4ccc(C(F)(F)F)cc4)c(CO)c3)CC2)c2ccccc21` the value was 1000 nM; for `COc1cc2nc(N3CCC(CNC(=O)c4ccc(-c5ccc(C(=O)N(C)C)cc5C)cc4)CC3)nc(N3CCN(C)CC3)c2cc1OC`, 1230 nM; for `CC(CCc1ccccc1)NCC(O)c1cccc([N+](=O)[O-])c1` (centres undefined), 860 nM.
For `O=C(Nc1cccc(N2CCC(NCc3cccnc3)CC2)c1)c1cccc(C(F)(F)F)c1` the value was 970 nM.
The compound `CCCC1N=C(N)N=C(N)N1c1cccc(C(F)(F)F)c1` (centres undefined) had an IC50 of 590 nM.
`Cc1cc(NC(=O)c2cccs2)ccc1OC1CCN(Cc2ccc(F)cc2)CC1` registered an IC50 of 480 nM.
Then `Cc1cc(NC(=O)N=C(N)N)ccc1Cl`, with 700 nM; and `Cc1cc(N2C(N)=NC(N)=NC2(C)C)ccc1Cl`, with 20 nM; and `COc1cc2nc(N3CCC(c4ccccc4)CC3)nc(NCc3ccc(=O)[nH]c3)c2cc1OC`, with 750 nM.
For `COc1ccccc1COc1c(C)nc(N)nc1N` the value was 710 nM.
`Cc1cccc2[nH]c(-c3cccc(-c4ccc(NC(=O)Cc5cnc[nH]5)cc4)c3)nc12` returned a half-maximal inhibitory concentration (IC50) of 690 nM.
Then `CO/C(=C\C=C\c1cc2cc(Cl)c(Cl)cc2[nH]1)C(=O)NC1C[C@H]2CCC[C@@H](C1)N2C` (some centres undefined), with 1000 nM; and `CCNc1cc(C(=O)N[C@@H](Cc2ccccc2)[C@H](O)CNCCc2cc(OC)cc(OC)c2)cc(N2CCCCS2(=O)=O)c1`, with 1140 nM; and `CCOc1cc(Br)c(C(C)NC(=O)c2cccc(OC)c2)cc1OCC` (centres undefined), with 170 nM.
For `COc1ccc(CCN(C)CCOc2ccc(NC(=O)c3cccc4c(=O)c5cc(SC)ccc5[nH]c34)cc2)cc1OC` the value was 740 nM.
Then `CC(C)(C)COc1ccc2c(N)n[nH]c2c1`, with 790 nM.
In the case of `Cc1cccc(CNc2nc(C)cc(N[C@@H](Cc3ccccc3)C(=O)NCCOc3ccccc3)n2)c1`, the IC50 is 910 nM.
In turn, `O=C(/C=C/c1ccc(Cl)c(Cl)c1)NCCCCCN1CCC(C(=O)Nc2ccc(F)c(Cl)c2)CC1` displayed an IC50 of 650 nM.
`CC(CN(C)C)C(=O)Nc1ccc(-c2csc(-c3nc4ccccc4[nH]3)c2)cc1` (centres undefined) registered an IC50 of 1320 nM.
For `CCc1nc2ccc(C(=O)OC)nc2n1Cc1ccc2oc(-c3ccccc3N)c(Br)c2c1` the value was 820 nM.
Then `Cc1[nH]c2ccccc2c1C1CCN(CCCCNC(=O)c2ccc(-c3ccc(C#N)cc3)cc2)CC1`, with 700 nM; and `COc1ccc2nccc([C@@H](O)CN3CCC(NCc4cc5ccccc5nn4)CC3)c2c1`, with 1200 nM.
For `Nc1nc(F)nc2nc[nH]c12` the value was 430 nM; for `O=S(=O)(Nc1cccc(CCN2CCCCC2CCN2CCCC2)c1)c1ccc(-c2ccccc2)cc1` (centres undefined), 1090 nM.
Take `Cc1nc(Nc2ccc(F)cc2)nc(N2CCc3ccccc3C2C)c1CO` (centres undefined): the IC50 worked out at 740 nM.
In turn, `Cc1nc(-c2nc(NCc3ccccn3)ncc2-c2ccsc2)sc1C` gave a concentration for half-maximal inhibition (IC50) of 560 nM.
For `CCCOc1cccc(C(=O)N[C@@H](Cc2ccccc2)[C@H](O)CNCc2cccc(OC)c2)c1` the value was 740 nM; for `NC(=O)c1ccc(C(=O)Nc2cccc(-c3ccc(-c4nc5ccc(C(F)(F)F)cc5[nH]4)cc3)c2)cc1`, 510 nM; for `COc1cccc(NC(=O)c2cc(Br)cc(N3CCN(c4ccncc4)CC3)c2)c1`, 770 nM.
Regarding `O=C(Nc1cccc2ccccc12)N1CCC(NS(=O)(=O)c2cccc(C(F)(F)F)c2)CC1`, the IC50 stood at 910 nM.
`Cc1cc(=O)c(-c2ccc(Oc3ccc(OC(F)(F)F)cc3)cc2)c(C)[nH]1` showed an IC50 of 360 nM.
In turn, `CCOc1cc(C)ccc1C1CCN(CCCCNC(=O)c2ccc(-c3ccc(C(F)(F)F)cn3)cc2)CC1` returned an IC50 of 790 nM.
With `CCN(CC)CCCNc1nccc(N(C)c2ccc(NC(=O)Nc3cc(C(F)(F)F)ccc3F)cc2)n1`, the IC50 was 1050 nM.
`O=C(NC1CC1)c1cnc(N2CCC(OCc3ccccc3)CC2)c(Cl)c1` showed an IC50 of 1400 nM.
For `CN(C)CCCNc1c2ccccc2nc2ccccc12` the value was 1040 nM; for `Cc1cc(Nc2ncc3c(n2)N(C2CCC2)CC3)ccc1N1CCN(C)CC1`, 1190 nM; for `Cc1ccnc(NC(c2ccc(Cl)c([N+](=O)[O-])c2)c2ccc3cccnc3c2O)c1` (centres undefined), 930 nM.
As to `COCCNCc1cccc(-c2ccc3c(Nc4ccc(F)cc4Cl)ccnc3c2)c1`, the 50% inhibitory concentration (IC50) stood at 680 nM.
Consider `CSc1ccc(CN2CCC(NC(=O)c3ccc(-c4cccc(C(F)(F)F)c4)s3)CC2)cc1`, for which the half-inhibitory concentration (IC50) came out at 1220 nM.
Then `COc1ccc2nccc(N3CCCN(CCNCc4ccc5c(n4)NC(=O)CS5)CC3)c2n1`, with 150 nM; and `Cc1cc2ccccc2n1CC(=O)N1CC(C(=O)N2CCCCC2)Oc2ccccc21` (centres undefined), with 900 nM.
For `CCN(CC)CCN(Cc1ccc(-c2ccc(C(F)(F)F)cc2)cc1)C(=O)Cn1c(CCc2cccc(F)c2F)cc(=O)cc1-c1ccccc1` the value was 780 nM; for `Cc1nc(N)nc(N)c1-c1cc(Cl)c(N)c(Cl)c1`, 800 nM.
For `Cc1c2ccc(N(C)c3ccnc(Nc4ccc5c(c4)nc(NC(C)C)n5C)n3)cc2nn1C` the value was 160 nM.
`Cc1nc2ccc3ccc(CNc4ccc(C(=O)N[C@@H](CCC(=O)O)C(=O)O)c(F)c4)cc3c2c(=O)[nH]1` returned an IC50 of 400 nM.
For `COc1ccc(C(=O)NC(c2ccc(Cl)cc2Cl)c2cc(Cl)c3cccnc3c2O)cc1` (centres undefined) the value was 500 nM; for `COc1ccc2nccc(NN=CC=Cc3ccccc3)c2c1`, 740 nM; for `CC(=O)Nc1ccc(CN2CCN(C(c3ccc(F)cc3)c3ccc(F)cc3)CC2)cc1`, 830 nM.
Then `O=C(NC1CCCCC1)c1ccc(O)c(-c2cccc(C(F)(F)F)c2)c1`, with 710 nM.
Then `C[C@@H]1CN(c2cnn(C/C=C/c3ccc(NC(=O)c4ccc([N+](=O)[O-])cc4)cc3)c(=O)c2Cl)C[C@H](C)N1`, with 700 nM.
In turn, `COc1ccc(C(=O)[C@H]2C[C@@H]2CN2CC=C(c3c(C)[nH]c4ccccc34)CC2)cc1` yielded an IC50 of 300 nM.
In turn, `Fc1cc(Cl)ccc1Nc1ccnc2cc(-c3scnc3CNCCN3CCOCC3)ccc12` came in with an IC50 of 850 nM.
Compound `COc1ccc(Cl)cc1-c1nc(C(=O)NCCN2CCCCC2)c(C(C)C)s1` yielded a half-maximal inhibitory concentration (IC50) of 750 nM.
For `FC(F)(F)c1cccc(Nc2nc3ccccc3nc2Nc2cccc(C(F)(F)F)c2)c1` the value was 140 nM.
Then `COc1cccc(C(=O)C2CC2CN2CC=C(c3c(C)[nH]c4ccccc34)CC2)c1` (centres undefined), with 710 nM.
For `O=c1cc(NCCCNCc2ccc(C(F)(F)F)s2)[nH]c2ccccc12` the value was 200 nM.
`c1cc(-c2ccc(CNC3CC3)cc2)cc(-c2nc3ccccc3[nH]2)c1`: the IC50 amounted to 1660 nM.
With `O=C(Nc1cccc(F)c1)NC1CCN(c2ccnc3cc(Cl)ccc23)CC1`, the half-maximal inhibitory concentration (IC50) was determined as 610 nM.
Then `COc1csc2cc(Br)ccc12`, with 860 nM; and `CCNc1cc(C(=O)N[C@@H](Cc2cc(F)cc(F)c2)[C@H](O)CNCc2cccc(C(F)(F)F)c2)cc(N2CCCCS2(=O)=O)c1`, with 610 nM.
Then `COc1cccc(C(=O)N2CCN(Cc3cccc(NC(=O)c4cccs4)c3)CC2)c1`, with 480 nM; and `COCCN1CCC(NCC(C)(C)c2nc(-c3ccc(Cl)c(O)c3)c(-c3ccncc3)[nH]2)CC1`, with 720 nM.
`c1ccc(-c2nc(NC3CCCCC3)cc(C3CC3)n2)nc1` gave an IC50 of 730 nM.
Then `COc1ccc(NC(=O)NC2CCN(CCCCCNC(=O)/C=C/c3ccc(Cl)c(Cl)c3)C2)c(OC)c1` (centres undefined), with 820 nM.
Then `Cc1ccc(NC(=O)NC2CCN(c3ccnc4cc(Cl)ccc34)C2)cc1` (centres undefined), with 150 nM.
`C=CCOc1ccccc1CNCC(O)c1cccc(C(F)(F)F)c1` (centres undefined) showed an IC50 of 840 nM.
Compound `Cc1cc(CN2CCCC(OC(c3ccc(F)cc3)c3ccc(F)cc3)C2)ccc1O` (centres undefined) returned an IC50 of 880 nM.
In turn, `O=c1cc(NCCCNCc2csc(Br)c2Sc2ccc(Cl)cc2)[nH]c2ccccc12` came in with an IC50 of 850 nM.
As for `O=C(/C=C/c1ccc(Cl)c(Cl)c1)N1CCC(CN2CCC(c3c[nH]c4ncccc34)CC2)CC1`, the IC50 came out at 1090 nM.
Then `O=C(NCCCCN1CCC(c2ccc3c(c2OCCCO)CCCC3)CC1)c1ccc(-c2ccc(C(F)(F)F)cc2)cc1`, with 720 nM; and `Cc1ccc(C)c2sc(N(CCCn3ccnc3)C(=O)C=Cc3cccs3)nc12`, with 1060 nM.
`O=S(=O)(c1cccc(Br)c1)N1CCCCC(c2ccc(C(F)(F)F)cc2)=N1`: the IC50 turned out to be 550 nM.
Then `O=c1[nH]c2c(cc1CNC1CCCCC1)c(-c1cccc(F)c1)nn2-c1ccccc1`, with 950 nM.
For `C[C@H](Nc1c(Nc2ccc3[nH]ccc3c2)c(=O)c1=O)C1CCCCC1`, the IC50 was found to be 210 nM.
Then `c1nc2nc3c(c(Nc4ccc5c(c4)CCC5)n2n1)CCC3`, with 920 nM; and `Nc1c(I)cc(C(=O)Nc2ccc3nc4c(c(N)c3c2)CCCC4)cc1I`, with 140 nM; and `Cc1ccoc1C(=O)Nc1cccc(-c2cccc(-c3nc4c(C)cccc4[nH]3)c2)c1`, with 670 nM.
`CN1CCN(CCCNc2ncc3c(-c4ccc(NC(=O)Nc5cc(C(F)(F)F)ccc5F)c(F)c4)nn(C)c3n2)CC1` returned an IC50 of 860 nM.
For `O=C(CCCCCNC(=O)c1ccc(O)c(-c2ccc(Cl)c(Cl)c2)c1)NC1CCCCCC1` the value was 950 nM; for `c1ccc(CN2CCC(Nc3ccc(-c4cn[nH]c4-c4ccccn4)nc3)CC2)cc1`, 800 nM; for `CCCCCCCc1c(C)[nH]c2ccc(F)cc2c1=O`, 290 nM.
